Data: BindingDB's records for doi:10.1021/jm100157m (University of Arizona, 2010)

Assay: Agonist activity at mu opioid receptor in guinea pig ileum assessed as inhibition of electrically-stimulated muscle contraction

CSCC[C@H](NC(=O)[C@H](Cc1ccccc1)NC(=O)CNC(=O)[C@@H](C)NC(=O)[C@@H](N)Cc1ccc(O)cc1)C(=O)N1CCC[C@H]1C(=O)N[C@@H](CC(C)C)C(=O)N[C@@H](Cc1c[nH]c2ccccc12)C(=O)NCc1cc(C(F)(F)F)cc(C(F)(F)F)c1 [Tyr-D-Ala-Gly-Phe-Met-Pro-Leu-Trp-NH-3,5-Bzl(CF 3) 2]
IC50: 420 nM
